For eight compounds, IC50 results are on record in patent US20240199584A1, “KRAS INHIBITORS” (Bristol-Myers Squibb Company, priority 2022, published 2024).

Read-outs that look alike come from different tables or passages of the source.

The target in one test is T1, KRAS G12A (Homo sapiens, UniProt P01116, G12A).
T1 construct: expressed in transfected cells
Kind of test: Cellular KRAS:RAF Disruption Assay (NanoBRET), KRAS G12A. The class given is cell-based. The note with it: HEK293 T cells co-expressing RAF1 and KRAS G12A, 24 hours; read-out: RAS::RAF binding via NanoBRET IC50, KRAS G12A. Here is the method: (§1) Cellular KRAS:RAF Disruption Assay
(§2) Stable cell lines (HEK293 T) were generated to co-express RAF1 and mutant or wild type KRAS, as indicated, using the BiBRET vector (Promega). Engineered cell lines were suspended in media (OptiMEM, […]), plated in 384-well plates (8000 cells/well), and allowed to rest for 1.5 hours. Cells were treated with compounds for 24 hours, and NanoBRET NanoGlo substrate (Promega) was added per the manufacturer's instructions.
(BRET reads energy transfer from a luciferase to a nearby fluorophore.)

The next test addresses T2, KRAS G12C (Homo sapiens, UniProt P01116, G12C).
T2 construct: expressed in transfected cells
Kind of test: Cellular KRAS:RAF Disruption Assay (NanoBRET), KRAS G12C. The class given is cell-based. The note with it: HEK293 T cells co-expressing RAF1 and KRAS G12C, 24 hours; read-out: RAS::RAF binding via NanoBRET IC50, KRAS G12C. Here is the method: as §1, §2

The target of another test is T3, KRAS G12V (Homo sapiens, UniProt P01116, G12V).
T3 construct: expressed in transfected cells
Kind of test: Cellular KRAS:RAF Disruption Assay (NanoBRET), KRAS G12V. The following applies: HEK293 T cells co-expressing RAF1 and KRAS G12V, 24 hours; read-out: RAS::RAF binding via NanoBRET IC50, KRAS G12V. The class given is cell-based. Here is the method:
as §1, §2

A further test deals with T4, KRAS G13D (Homo sapiens, UniProt P01116, G13D).
T4 construct: expressed in transfected cells
Kind of test: Cellular KRAS:RAF Disruption Assay (NanoBRET), KRAS G13D. The following applies: HEK293 T cells co-expressing RAF1 and KRAS G13D, 24 hours; read-out: RAS::RAF binding via NanoBRET IC50, KRAS G13D. The class given is cell-based. Here is the method:
as §1, §2

The target of a further test is T5, KRAS WT (Homo sapiens, UniProt P01116).
T5 construct: expressed in transfected cells
Briefly: Cellular KRAS:RAF Disruption Assay (NanoBRET), KRAS WT. Format: cell-based. The note with it: HEK293 T cells co-expressing RAF1 and wild type KRAS, 24 hours; read-out: RAS::RAF binding via NanoBRET IC50, KRAS WT. The procedure: as §1, §2

A further test has as its target T6, KRAS G12R (Homo sapiens, UniProt P01116, G12R).
T6 construct: expressed in transfected cells
Briefly: Cellular KRAS:RAF Disruption Assay (NanoBRET), KRAS G12R. Format: cell-based. The note with it: HEK293 T cells co-expressing RAF1 and KRAS G12R, 24 hours; read-out: RAS::RAF binding via NanoBRET IC50, KRAS G12R. The procedure: as §1, §2

Another test has as its target T7, KRAS G12S (Homo sapiens, UniProt P01116, G12S).
T7 construct: expressed in transfected cells
Kind of test: Cellular KRAS:RAF Disruption Assay (NanoBRET), KRAS G12S. Format: cell-based. The following applies: HEK293 T cells co-expressing RAF1 and KRAS G12S, 24 hours; read-out: RAS::RAF binding via NanoBRET IC50, KRAS G12S. Here is the method:
as §1, §2

The target in the next test is T8, KRAS Q61H (Homo sapiens, UniProt P01116, Q61H).
T8 construct: expressed in transfected cells
Briefly: Cellular KRAS:RAF Disruption Assay (NanoBRET), KRAS Q61H. The following applies: HEK293 T cells co-expressing RAF1 and KRAS Q61H, 24 hours; read-out: RAS::RAF binding via NanoBRET IC50, KRAS Q61H. The class given is cell-based. Here is the method: as §1, §2

For another test, the target named is T9, KRAS Q61R (Homo sapiens, UniProt P01116, Q61R).
T9 construct: expressed in transfected cells
Kind of test: Cellular KRAS:RAF Disruption Assay (NanoBRET), KRAS Q61R. The note with it: HEK293 T cells co-expressing RAF1 and KRAS Q61R, 24 hours; read-out: RAS::RAF binding via NanoBRET IC50, KRAS Q61R. The class given is cell-based. Here is the method: as §1, §2

A further test deals with T10, KRAS A146T (Homo sapiens, UniProt P01116, A146T).
T10 construct: expressed in transfected cells
Briefly: Cellular KRAS:RAF Disruption Assay (NanoBRET), KRAS A146T. Format: cell-based. The note with it: HEK293 T cells co-expressing RAF1 and KRAS A146T, 24 hours; read-out: RAS::RAF binding via NanoBRET IC50, KRAS A146T. The procedure:
as §1, §2

Test [1] deals with T11, KRAS G12D (Homo sapiens, UniProt P01116, G12D). Kind of test: biochemical.
Procedure: Recombinant GST-RAF1 RBD (Ras binding domain) (9 nM) was added, followed by the addition of SA-Tb (0.25 nM), and the reaction mixture was incubated for 3 hours. HTRF (Homogeneous Time-Resolved Fluorescence) signal was measured (PerkinElmer Envision), the signal ratio (λem 520/λem 495) was calculated, and IC50 values were calculated from the dose-response curve.
Test [2] concerns the target T11, KRAS G12D. Kind of test: biochemical. The source holds these as a separate data set.
Procedure: BIODIPY-labeled GDP (BIODIPY: dipyrrometheneboron difluoride) (400 nM) and recombinant SOS (son of sevenless protein) (10 nM) were added, and the reaction was incubated for 30 minutes. HTRF signal was measured (PerkinElmer Envision), the signal ratio (λem 520/λem 495) was calculated, and IC50 values were calculated from the dose-response curve.

T11 sequence (P01116 1-188 isoform P01116-2 G12D): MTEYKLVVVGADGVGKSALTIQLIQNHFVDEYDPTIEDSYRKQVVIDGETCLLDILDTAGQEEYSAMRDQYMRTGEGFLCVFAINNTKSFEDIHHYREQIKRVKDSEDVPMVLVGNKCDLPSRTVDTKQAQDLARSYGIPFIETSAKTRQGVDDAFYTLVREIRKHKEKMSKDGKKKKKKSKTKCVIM
T3 sequence (P01116 1-188 isoform P01116-2 G12V): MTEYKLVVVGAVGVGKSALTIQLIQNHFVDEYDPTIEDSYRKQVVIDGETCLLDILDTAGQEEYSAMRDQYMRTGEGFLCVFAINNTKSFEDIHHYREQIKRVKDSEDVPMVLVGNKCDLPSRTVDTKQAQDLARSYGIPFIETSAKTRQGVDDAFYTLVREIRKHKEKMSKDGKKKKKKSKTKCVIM
T4 sequence (P01116 1-188 isoform P01116-2 G13D): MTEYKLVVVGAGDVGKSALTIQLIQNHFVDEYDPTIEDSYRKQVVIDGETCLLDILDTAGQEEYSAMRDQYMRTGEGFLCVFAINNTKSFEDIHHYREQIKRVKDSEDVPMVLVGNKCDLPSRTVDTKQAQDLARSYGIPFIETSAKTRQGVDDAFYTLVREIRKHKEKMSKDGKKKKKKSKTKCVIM
T6 sequence (P01116 1-188 isoform P01116-2 G12R): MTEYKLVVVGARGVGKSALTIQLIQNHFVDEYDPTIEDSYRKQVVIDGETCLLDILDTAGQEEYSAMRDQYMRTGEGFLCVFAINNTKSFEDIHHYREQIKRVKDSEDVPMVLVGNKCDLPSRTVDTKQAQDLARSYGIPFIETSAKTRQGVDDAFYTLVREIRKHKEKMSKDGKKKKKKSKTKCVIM
T7 sequence (P01116 1-188 isoform P01116-2 G12S): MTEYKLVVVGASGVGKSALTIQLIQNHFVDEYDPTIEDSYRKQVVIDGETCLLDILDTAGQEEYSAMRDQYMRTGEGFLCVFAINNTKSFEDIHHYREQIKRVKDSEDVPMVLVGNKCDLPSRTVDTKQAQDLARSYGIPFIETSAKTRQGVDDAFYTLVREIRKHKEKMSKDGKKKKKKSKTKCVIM
T10 sequence (P01116 1-188 isoform P01116-2 A146T): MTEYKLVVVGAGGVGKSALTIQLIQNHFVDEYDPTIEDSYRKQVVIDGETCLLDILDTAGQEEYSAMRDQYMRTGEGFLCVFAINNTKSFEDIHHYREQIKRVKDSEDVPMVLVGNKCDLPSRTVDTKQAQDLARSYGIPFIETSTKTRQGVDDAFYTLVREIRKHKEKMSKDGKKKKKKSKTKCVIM
T8 sequence (P01116 1-188 isoform P01116-2 Q61H): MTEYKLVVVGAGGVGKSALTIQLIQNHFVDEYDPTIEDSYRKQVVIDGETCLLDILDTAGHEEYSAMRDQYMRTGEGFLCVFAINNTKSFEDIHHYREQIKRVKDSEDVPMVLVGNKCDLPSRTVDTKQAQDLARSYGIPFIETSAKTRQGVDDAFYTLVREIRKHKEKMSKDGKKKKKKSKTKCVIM
T5 sequence (P01116 1-188 isoform P01116-2): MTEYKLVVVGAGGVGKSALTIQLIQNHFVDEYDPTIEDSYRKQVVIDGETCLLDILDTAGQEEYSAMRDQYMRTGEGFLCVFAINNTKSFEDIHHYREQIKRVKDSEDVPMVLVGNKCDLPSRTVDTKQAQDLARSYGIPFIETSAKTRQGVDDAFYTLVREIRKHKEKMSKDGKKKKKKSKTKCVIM
T1 sequence (P01116 1-188 isoform P01116-2 G12A): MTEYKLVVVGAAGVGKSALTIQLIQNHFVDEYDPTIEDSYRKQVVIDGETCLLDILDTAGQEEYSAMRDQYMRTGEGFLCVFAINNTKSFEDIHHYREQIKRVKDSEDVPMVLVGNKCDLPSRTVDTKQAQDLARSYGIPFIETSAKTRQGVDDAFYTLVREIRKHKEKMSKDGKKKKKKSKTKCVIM
T9 sequence (P01116 1-188 isoform P01116-2 Q61R): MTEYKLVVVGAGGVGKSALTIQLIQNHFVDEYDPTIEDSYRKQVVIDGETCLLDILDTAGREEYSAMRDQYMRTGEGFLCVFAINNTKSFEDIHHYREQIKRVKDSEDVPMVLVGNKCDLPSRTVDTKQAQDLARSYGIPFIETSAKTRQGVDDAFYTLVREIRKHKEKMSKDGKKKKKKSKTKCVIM
T2 sequence (P01116 1-188 isoform P01116-2 G12C): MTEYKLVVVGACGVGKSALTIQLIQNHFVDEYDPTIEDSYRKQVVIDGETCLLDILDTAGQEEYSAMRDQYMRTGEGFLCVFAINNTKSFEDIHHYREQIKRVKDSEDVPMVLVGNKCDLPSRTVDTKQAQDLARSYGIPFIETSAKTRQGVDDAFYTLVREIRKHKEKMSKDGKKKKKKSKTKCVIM

A word on the IC50: it is the midpoint of a concentration-inhibition curve. `C#Cc1c(F)ccc2cc(O)cc(-c3ncc4c(N5CCOCC5)nc(OC[C@@]56CCCN5C[C@H](F)C6)nc4c3F)c12` [Example 1-1, 4-(2-{[(2R,7aS)-2-fluoro-hexahydro-1H-pyrrolizin-7a-yl]methoxy}-8-fluoro-4-(morpholin-4-yl)pyrido[4,3-d]pyrimidin-7-yl)-5-ethynyl-6-fluoronaphthalen-2-ol]: the IC50 at KRAS G12A was determined as 0.016 µM; on KRAS G12C, 0.025 µM; at KRAS G12V it was 0.199 µM; on KRAS G13D it was 0.045 µM; on KRAS WT it was 0.006 µM; on KRAS G12R, 5.3 µM. Moreover, the IC50 on KRAS G12S is 0.029 µM; on KRAS Q61H, 0.099 µM; on KRAS Q61R, above 10 µM; on KRAS A146T it was 0.076 µM.
As for `C#Cc1c(F)ccc2cc(O)cc(-c3ncc4c(N5CCCOCC5)nc(OC[C@]56CCC[C@H]5N(C)CCC6)nc4c3F)c12` [Example 1-3, 4-(2-{[(4aS,7aR)-1-methyl-octahydro-1H-cyclopenta[b]pyridin-4a-yl]methoxy}-8-fluoro-4-(1,4-oxazepan-4-yl)pyrido[4,3-d]pyrimidin-7-yl)-5-ethynyl-6-fluoronaphthalen-2-ol], the concentration for half-maximal inhibition (IC50) at KRAS G12A came to 0.002 µM; at KRAS G12C, 0.003 µM; on KRAS G12V, 0.019 µM; at KRAS G13D, 0.005 µM; on KRAS WT, 0.002 µM; on KRAS G12R, 0.133 µM. The half-inhibitory concentration (IC50) at KRAS G12S is 0.004 µM; at KRAS Q61H, 0.007 µM; on KRAS Q61R, 1.46 µM; at KRAS A146T it was 0.016 µM; on KRAS G12D [1], below 0.002 µM; against KRAS G12D [2], below 0.002 µM.
With `C#Cc1c(F)ccc2cc(O)cc(-c3ncc4c(N5C6COCC5C6)nc(OC[C@@]56CCCN5C[C@H](F)C6)nc4c3F)c12` [Example 1-35, 4-(2-{[(2R,7aS)-2-fluoro-hexahydro-1H-pyrrolizin-7a-yl]methoxy}-8-fluoro-4-{3-oxa-6-azabicyclo[3.1.1]heptan-6-yl}pyrido[4,3-d]pyrimidin-7-yl)-5-ethynyl-6-fluoronaphthalen-2-ol], the IC50 on KRAS G12A is 0.01 µM; on KRAS G12C, 0.012 µM; at KRAS G12V, 0.032 µM; on KRAS G13D, 0.022 µM; at KRAS WT, 0.013 µM; on KRAS G12R it was 4.23 µM. For the same compound, the half-inhibitory concentration (IC50) on KRAS G12S is 0.011 µM; on KRAS Q61H, 0.031 µM; on KRAS Q61R, above 10 µM; at KRAS A146T, 0.04 µM.
In the case of `C#Cc1c(F)ccc2cc(O)cc(-c3ccc4c(N5CCCOCC5)nc(OC[C@@]56CCCN5C[C@H](F)C6)nc4c3F)c12` [Example 2-2, 4-(2-{[(2R,7aS)-2-fluoro-hexahydro-1H-pyrrolizin-7a-yl]methoxy}-8-fluoro-4-(1,4-oxazepan-4-yl)quinazolin-7-yl)-5-ethynyl-6-fluoronaphthalen-2-ol], the concentration for half-maximal inhibition (IC50) at KRAS G12A was found to be 0.003 µM; at KRAS G12C it was 0.005 µM; on KRAS G12V, 0.026 µM; at KRAS G13D it was 0.008 µM; on KRAS WT it was 0.002 µM; on KRAS G12R, 0.204 µM. The concentration for half-maximal inhibition (IC50) on KRAS G12S stood at 0.006 µM; at KRAS Q61H, 0.016 µM; on KRAS Q61R, 2.29 µM; at KRAS A146T, 0.017 µM.
As for `C#Cc1c(F)ccc2cc(O)cc(-c3ccc4c(N5CCCOCC5)nc(OC[C@]56CCC[C@H]5N(C)CCC6)nc4c3F)c12` [Example 2-3, 4-(2-{[(4aS,7aR)-1-methyl-octahydro-1H-cyclopenta[b]pyridin-4a-yl]methoxy}-8-fluoro-4-(1,4-oxazepan-4-yl)quinazolin-7-yl)-5-ethynyl-6-fluoronaphthalen-2-ol], the IC50 stood at 0.018 µM on KRAS G12A; 0.024 µM on KRAS G12C; 0.172 µM at KRAS G12V; 0.049 µM at KRAS G13D; 0.011 µM at KRAS WT; 1.07 µM at KRAS G12R. In addition, the IC50 at KRAS G12S is 0.039 µM; at KRAS Q61H it was 0.072 µM; at KRAS Q61R, above 5 µM; at KRAS A146T, 0.081 µM.
`C#Cc1c(F)ccc2cc(O)cc(-c3ncc4c(N5CC6CCC(C5)N6C(=O)C5CC5)nc(OC[C@@]56CCCN5C[C@H](F)C6)nc4c3F)c12` [Example 6-2, 4-(2-{[(2R,7aS)-2-fluoro-hexahydro-1H-pyrrolizin-7a-yl]methoxy}-4-{8-cyclopropanecarbonyl-3,8-diazabicyclo[3.2.1]octan-3-yl}-8-fluoropyrido[4,3-d]pyrimidin-7-yl)-5-ethynyl-6-fluoronaphthalen-2-ol]: the 50% inhibitory concentration (IC50) on KRAS G12A was 0.029 µM; at KRAS G12C, 0.117 µM; on KRAS G12V, 0.405 µM; at KRAS G13D, 0.072 µM; at KRAS WT it was 0.069 µM; at KRAS G12R, above 10 µM. The half-inhibitory concentration (IC50) at KRAS G12S was 0.109 µM; at KRAS Q61H, 0.234 µM; on KRAS Q61R, above 10 µM; on KRAS A146T it was 0.179 µM; against KRAS G12D [1] it was 0.9 µM; against KRAS G12D [2], below 0.002 µM.
`C#Cc1c(F)ccc2cc(O)cc(-c3ccc4c(N5CC6CCC(C5)N6C(=O)C(F)(F)F)nc(OC[C@@]56CCCN5C[C@H](F)C6)nc4c3F)c12` [Example 7-3, 1-[3-(2-{[(2R,7aS)-2-fluoro-hexahydro-1H-pyrrolizin-7a-yl]methoxy}-7-(8-ethynyl-7-fluoro-3-hydroxynaphthalen-1-yl)-8-fluoroquinazolin-4-yl)-3,8-diazabicyclo[3.2.1]octan-8-yl]-2,2,2-trifluoroethan-1-one]: the 50% inhibitory concentration (IC50) on KRAS G12A worked out at 0.144 µM; at KRAS G12C, 0.367 µM; on KRAS G12V, 0.68 µM; at KRAS G13D it was 0.199 µM; on KRAS WT it was 0.04 µM; on KRAS G12R it was 7.51 µM. Moreover, the 50% inhibitory concentration (IC50) on KRAS G12S is 0.313 µM; on KRAS Q61H, 0.474 µM; on KRAS Q61R, above 10 µM; on KRAS A146T it was 0.315 µM.
Take `C#Cc1c(F)ccc2cc(O)cc(-c3ccc4c(N5CC6CCC(C5)N6C(=O)C(F)(F)F)nc(OC[C@]56CCC[C@H]5N(C)CCC6)nc4c3F)c12` [Example 7-7, 1-[3-(2-{[(4aS,7aR)-1-methyl-octahydro-1H-cyclopenta[b]pyridin-4a-yl]methoxy}-7-(8-ethynyl-7-fluoro-3-hydroxynaphthalen-1-yl)-8-fluoroquinazolin-4-yl)-3,8-diazabicyclo[3.2.1]octan-8-yl]-2,2,2-trifluoroethan-1-one]: the IC50 was 0.226 µM on KRAS G12A; 0.346 µM on KRAS G12C; above 5 µM on KRAS G12V; 0.407 µM at KRAS G13D; 0.242 µM on KRAS WT; above 5 µM on KRAS G12R. Also, the IC50 was 0.422 µM on KRAS G12S; 0.504 µM on KRAS Q61H; above 5 µM at KRAS Q61R; 0.577 µM at KRAS A146T; 0.007 µM on KRAS G12D [1]; below 0.002 µM against KRAS G12D [2].
